Measured values as given in ChEMBL document CHEMBL1156204, “Spectacular modification of Gambogic acid on microwave irradiation in methanol: isolation and structure identification of two products with potent anti-tumor activity” (Bioorg Med Chem Lett, 2010).
Active and inactive are the calls of the source. No cut-off for these calls is given here.

Assays:
HepG2 [1] = experiment: Effect on human HepG2 cell morphology assessed as induction of cell shrinkage at 1.25 to 5 uM after 24 hrs by inverted-light microscopy; assay type: functional, cell-based
HepG2 [2] = experiment: Effect on human HepG2 cell morphology assessed as cell elongation at 1.25 to 5 uM after 24 hrs by inverted-light microscopy; assay type: functional, cell-based
HepG2 [3] = experiment: Effect on human HepG2 cell morphology assessed as formation of round cells at 0.5 to 2 uM after 24 hrs by inverted-light microscopy; assay type: functional, cell-based
HepG2 [4] = experiment: Induction of apoptosis in human HepG2 cells assessed as viable cells at 2.5 uM after 24 hrs using annexin-V and propidium iodide staining by flow cytometry; assay type: functional; conditions: HepG2, 24 h, read-out: Activity
HepG2 [5] = experiment: Effect on human HepG2 cell morphology assessed as formation of round cells at 1.25 to 5 uM after 24 hrs by inverted-light microscopy; assay type: functional, cell-based
SGC-7901 = experiment: Cytotoxicity against human SGC7901 cells after 48 hrs by MTT assay; assay type: functional, cell-based; conditions: SGC-7901, 48 h
MCF7 = experiment: Cytotoxicity against human MCF7 cells after 48 hrs by MTT assay; assay type: functional, cell-based; conditions: MCF7, 48 h
HepG2 [6] = experiment: Induction of apoptosis in human HepG2 cells assessed as late apoptotic cells at 2.5 uM after 24 hrs using annexin-V and propidium iodide staining by flow cytometry; assay type: functional
HepG2 [7] = experiment: Induction of apoptosis in human HepG2 cells assessed as late apoptotic cells at 5 uM after 24 hrs using annexin-V and propidium iodide staining by flow cytometry; assay type: functional
HepG2 [8] = experiment: Induction of apoptosis in human HepG2 cells assessed as viable cells at 1.25 uM after 24 hrs using annexin-V and propidium iodide staining by flow cytometry; assay type: functional; conditions: HepG2, 24 h, read-out: Activity
HepG2 [9] = experiment: Cytotoxicity against human HepG2 cells after 48 hrs by MTT assay; assay type: functional, cell-based; conditions: HepG2, 48 h
HepG2 [10] = experiment: Effect on human HepG2 cell morphology assessed as induction of cell shrinkage at 0.5 to 2 uM after 24 hrs by inverted-light microscopy; assay type: functional, cell-based
HepG2 [11] = experiment: Effect on human HepG2 cell morphology assessed as cell elongation at 0.5 to 2 uM after 24 hrs by inverted-light microscopy; assay type: functional, cell-based
HepG2 [12] = experiment: Induction of apoptosis in human HepG2 cells assessed as viable cells at 5 uM after 24 hrs using annexin-V and propidium iodide staining by flow cytometry; assay type: functional; conditions: HepG2, 24 h, read-out: Activity
HepG2 [13] = experiment: Induction of apoptosis in human HepG2 cells assessed as late apoptotic cells at 1.25 uM after 24 hrs using annexin-V and propidium iodide staining by flow cytometry; assay type: functional
HepG2 [14] = experiment: Induction of apoptosis in human HepG2 cells assessed as early apoptotic cells at 2.5 uM after 24 hrs using annexin-V and propidium iodide staining by flow cytometry; assay type: functional
HepG2 [15] = experiment: Induction of apoptosis in human HepG2 cells assessed as decrease in Bcl-2 expression at 1.25 to 5 uM after 24 hrs; assay type: functional, cell-based
HepG2 [16] = experiment: Induction of apoptosis in human HepG2 cells assessed as appearance of apoptotic bodies at 0.5 to 2 uM after 24 hrs by fluorescence microscopy; assay type: functional, cell-based
HepG2 [17] = experiment: Induction of apoptosis in human HepG2 cells assessed as early apoptotic cells at 5 uM after 24 hrs using annexin-V and propidium iodide staining by flow cytometry; assay type: functional
HepG2 [18] = experiment: Induction of apoptosis in human HepG2 cells assessed as dead cells at 5 uM after 24 hrs using annexin-V and propidium iodide staining by flow cytometry; assay type: functional
HepG2 [19] = experiment: Induction of apoptosis in human HepG2 cells assessed as appearance of apoptotic bodies at 1.25 to 5 uM after 24 hrs by fluorescence microscopy; assay type: functional, cell-based
[20] = Cytotoxicity against human BGC803 cells after 48 hrs by MTT assay; assay type: functional, cell-based; conditions: BGC803, 48 h
HepG2 [21] = experiment: Induction of apoptosis in human HepG2 cells assessed as dead cells at 2.5 uM after 24 hrs using annexin-V and propidium iodide staining by flow cytometry; assay type: functional
HepG2 [22] = experiment: Induction of apoptosis in human HepG2 cells assessed as nuclear condensation at 1.25 to 5 uM after 24 hrs by DAPI staining-based fluorescence microscopy; assay type: functional, cell-based
HepG2 [23] = experiment: Induction of apoptosis in human HepG2 cells assessed as decrease in procaspase-3 expression at 1.25 to 5 uM after 24 hrs; assay type: functional, cell-based
HepG2 [24] = experiment: Effect on human HepG2 cell morphology assessed as induction of membrane blebbing at 1.25 to 5 uM after 24 hrs by inverted-light microscopy; assay type: functional, cell-based
HepG2 [25] = experiment: Induction of necrosis in human HepG2 cells at 0.5 to 2 uM after 24 hrs by inverted-light microscopy; assay type: functional, cell-based
HepG2 [26] = experiment: Induction of apoptosis in human HepG2 cells assessed as nuclear condensation at 0.5 to 2 uM after 24 hrs by DAPI staining-based fluorescence microscopy; assay type: functional, cell-based
HepG2 [27] = experiment: Induction of apoptosis in human HepG2 cells assessed as early apoptotic cells at 1.25 uM after 24 hrs using annexin-V and propidium iodide staining by flow cytometry; assay type: functional
HepG2 [28] = experiment: Induction of necrosis in human HepG2 cells at 1.25 to 5 uM after 24 hrs by inverted-light microscopy; assay type: functional, cell-based
HepG2 [29] = experiment: Induction of apoptosis in human HepG2 cells assessed as dead cells at 1.25 uM after 24 hrs using annexin-V and propidium iodide staining by flow cytometry; assay type: functional
HepG2 [30] = experiment: Effect on human HepG2 cell morphology assessed as induction of membrane blebbing at 0.5 to 2 uM after 24 hrs by inverted-light microscopy; assay type: functional, cell-based
HepG2 [31] = experiment: Induction of apoptosis in human HepG2 cells assessed as late apoptotic cells at 2 uM after 24 hrs using annexin-V and propidium iodide staining by flow cytometry; assay type: functional
HepG2 [32] = experiment: Induction of apoptosis in human HepG2 cells assessed as increase in active caspase-3 expression at 0.5 to 2 uM after 24 hrs; assay type: functional, cell-based
HepG2 [33] = experiment: Induction of apoptosis in human HepG2 cells assessed as viable cells at 1 uM after 24 hrs using annexin-V and propidium iodide staining by flow cytometry; assay type: functional; conditions: HepG2, 24 h, read-out: Activity
HepG2 [34] = experiment: Induction of apoptosis in human HepG2 cells assessed as increase in bax expression at 0.5 to 2 uM after 24 hrs; assay type: functional, cell-based
HepG2 [35] = experiment: Induction of apoptosis in human HepG2 cells assessed as viable cells at 2 uM after 24 hrs using annexin-V and propidium iodide staining by flow cytometry; assay type: functional; conditions: HepG2, 24 h, read-out: Activity
HepG2 [36] = experiment: Induction of apoptosis in human HepG2 cells assessed as late apoptotic cells at 1 uM after 24 hrs using annexin-V and propidium iodide staining by flow cytometry; assay type: functional
HepG2 [37] = experiment: Induction of apoptosis in human HepG2 cells assessed as dead cells at 0.5 uM after 24 hrs using annexin-V and propidium iodide staining by flow cytometry; assay type: functional
HepG2 [38] = experiment: Induction of apoptosis in human HepG2 cells assessed as viable cells at 0.5 uM after 24 hrs using annexin-V and propidium iodide staining by flow cytometry; assay type: functional; conditions: HepG2, 24 h, read-out: Activity
HepG2 [39] = experiment: Induction of apoptosis in human HepG2 cells assessed as dead cells at 2 uM after 24 hrs using annexin-V and propidium iodide staining by flow cytometry; assay type: functional
HepG2 [40] = experiment: Induction of apoptosis in human HepG2 cells assessed as early apoptotic cells at 1 uM after 24 hrs using annexin-V and propidium iodide staining by flow cytometry; assay type: functional
HepG2 [41] = experiment: Induction of apoptosis in human HepG2 cells assessed as early apoptotic cells at 2 uM after 24 hrs using annexin-V and propidium iodide staining by flow cytometry; assay type: functional
HepG2 [42] = experiment: Induction of apoptosis in human HepG2 cells assessed as early apoptotic cells at 0.5 uM after 24 hrs using annexin-V and propidium iodide staining by flow cytometry; assay type: functional
HepG2 [43] = experiment: Induction of apoptosis in human HepG2 cells assessed as dead cells at 1 uM after 24 hrs using annexin-V and propidium iodide staining by flow cytometry; assay type: functional
HepG2 [44] = experiment: Induction of apoptosis in human HepG2 cells assessed as late apoptotic cells at 0.5 uM after 24 hrs using annexin-V and propidium iodide staining by flow cytometry; assay type: functional
HepG2 [45] = experiment: Induction of apoptosis in human HepG2 cells assessed as decrease in procaspase-3 expression at 0.5 to 2 uM after 24 hrs; assay type: functional, cell-based

SMILES	Activity (HepG2 [1])	Activity (HepG2 [2])	Activity (HepG2 [3])	Activity (HepG2 [5])	IC50 (SGC-7901)	IC50 (MCF7)	IC50 (HepG2 [9])	Activity (HepG2 [10])	Activity (HepG2 [11])	Activity (HepG2 [16])	Activity (HepG2 [19])	IC50 [20]	Activity (HepG2 [22])	Activity (HepG2 [24])	Activity (HepG2 [25])	Activity (HepG2 [26])	Activity (HepG2 [28])	Activity (HepG2 [30])	also measured
COC(=O)/C(C)=C\C[C@@]12OC(C)(C)[C@@H]3C[C@@H](C=C4C(=O)c5c(O)c6c(c(CC=C(C)C)c5O[C@]431)O[C@]1(C)CCC(=C(C)C)C6C1)C2=O	Active	Active	Active	Active	2.15 µM	1.88 µM	1.96 µM	Active	Active	Active	Active	1.45 µM	Active	Active	Active	Active	Active	Active	viability at 2.5 µM (HepG2 [4]): 80.9%; Activity (HepG2 [6]): 4.1%; Activity (HepG2 [7]): 4.4%; viability at 1.25 µM (HepG2 [8]): 89.8%; viability at 5 µM (HepG2 [12]): 73.2%; Activity (HepG2 [13]): 4%; Activity (HepG2 [14]): 13.6%; Activity (HepG2 [15]): Active; Activity (HepG2 [17]): 20.7%; Activity (HepG2 [18]): 1.8%; Activity (HepG2 [21]): 1.4%; Activity (HepG2 [23]): Active; Activity (HepG2 [27]): 5.7%; Activity (HepG2 [29]): 0.4%
CC(C)=CCC[C@]1(C)C=Cc2c(O)c3c(c(CC=C(C)C)c2O1)O[C@]12C(=C[C@@H]4C[C@H]1C(C)(C)O[C@@]2(C/C=C(/C)C(=O)O)C4=O)C3=O [GAMBOGIC ACID]					1.47 µM	0.5 µM	2.4 µM					1.54 µM							
COC(=O)/C(C)=C\C[C@@]12OC(C)(C)[C@@H]3C[C@@H](C=C4C(=O)c5c(O)c6c(c(CC=C(C)C)c5O[C@]431)O[C@](C)(CCC=C(C)C)C=C6)C2=O [METHYL GAMBOGATE]					0.79 µM	0.52 µM	2.53 µM					1.24 µM							
COC(=O)/C(C)=C\C[C@@]12OC(C)(C)[C@@H]3C[C@@H](C=C4C(=O)c5c(O)c(C6C[C@](C)(OC)CCC6=C(C)C)c6c(c5O[C@]431)CCC(C)(C)O6)C2=O (stereo partly drawn)	Active	Active	Active	Active	1.51 µM	1.24 µM	1.53 µM	Active	Active	Active	Active	2.01 µM	Active	Active	Active	Active	Active	Active	Activity (HepG2 [31]): 8.1%; Activity (HepG2 [32]): Active; viability at 1 µM (HepG2 [33]): 83.7%; Activity (HepG2 [34]): Active; viability at 2 µM (HepG2 [35]): 53.6%; Activity (HepG2 [36]): 2.5%; Activity (HepG2 [37]): 0.3%; viability at 0.5 µM (HepG2 [38]): 94%; Activity (HepG2 [39]): 3.4%; Activity (HepG2 [40]): 12.9%; Activity (HepG2 [41]): 35%; Activity (HepG2 [42]): 4.3%; Activity (HepG2 [43]): 0.9%; Activity (HepG2 [44]): 1.3%; Activity (HepG2 [45]): Active
